Measurements as given in US6964960B2, “Indoloquinazolinones” (Novartis AG, priority 2000, dated 2005).

Tests used:
[1] = test system: pentobarbital-anesthetized rabbit myocardial infarction; experiment: pentobarbital-anesthetized rabbit myocardial infarction model; format: in vivo
Excerpt: The cardioprotective activity of the agents of the invention is confirmed in vivo e.g. in a model of pentobarbital-anesthetized rabbit myocardial infarction where the infarct size is reduced upon administration of about 1 to about 100 μmol/kg [For the model, see for example Ytrehus K. et al., Am. J. Physiol 267 (Heart Circ. Physiol. 36): H2383-2390, 1994 and Haessler R. et al., Cardiov. Res. 28: 1574-1580, 1994; for the cardioprotective effect of PARP inhibitors as evidenced in this model, see for example Thiemermann C. et al., Proc. Natl. Acad. Sci. USA 94: 679-683, 1997].

For `Cl.Cl.O=c1[nH]c2c(CCNCCN3CCOCC3)c3ccccc3n2c2ccccc12`, the melting point was 196 to 198 °C.
`CCc1c2ccccc2n2c1[nH]c(=O)c1ccccc12` [Example 1, 7-Ethyl-6H-indolo[1,2-a]quinazoline-5-one] gave a melting point of 245 to 260 °C.
In the case of `O=c1[nH]c2c(Cc3nnn[nH]3)c3ccccc3n2c2ccccc12` [Example 22, 7-(1 H-Tetrazole-5-ylmethyl)-6H-indolo[1,2-a]quinazoline-5-one], the “reduction of infarct size” value ([1]; highest dose tested (70 μmol/kg i.v., 22.1 mg/kg of the base), single injection five minutes before reperfusion) is reported as 60% and the “effect on infarct size” value ([1]; single injection at 3-70 μmol/kg i.v. (0.95-22.1 mg/kg i.v. of the base) five minutes before reperfusion) is reported as “dose-dependently reduces infarct size”.
Compound `O=c1[nH]c2c(CCO)c3ccccc3n2c2ccccc12` [Example 61, 7-(2-Hydroxy-ethyl)-6H-indolo[1,2-a]quinazoline-5-one] has a melting point of 248 to 252 °C.
With `NCCc1c2ccccc2n2c1[nH]c(=O)c1ccccc12` [Example 64, 7-(2-Amino-ethyl)-6H-indolo[1,2-a]quinazoline-5-one] the melting point was > 300 °C.
For `CCC(N)Cc1c2ccccc2n2c1[nH]c(=O)c1ccccc12` (stereo not shown) [Example 65, 7-(2-Amino-butyl)-6H-indolo[1,2-a]quinazoline-5-one], the melting point was 165 to 195 °C (dec.).
